Experimental data as given in patent US20250064941A1, “SIGLEC LIGANDS, CONJUGATES, AND METHODS OF USE THEREOF” (Osprey Biopharmaceuticals, Inc., priority 2023, published 2025).

Assays:
[1] = biological target: T1, human Siglec-2/CD22 protein (Homo sapiens, UniProt P20273); assay: SPR binding affinity to human CD22; conditions: steady-state analysis
T1 construct: purchased Acro Biosystems SI2-H82E3
T1 sequence (P20273 20-847): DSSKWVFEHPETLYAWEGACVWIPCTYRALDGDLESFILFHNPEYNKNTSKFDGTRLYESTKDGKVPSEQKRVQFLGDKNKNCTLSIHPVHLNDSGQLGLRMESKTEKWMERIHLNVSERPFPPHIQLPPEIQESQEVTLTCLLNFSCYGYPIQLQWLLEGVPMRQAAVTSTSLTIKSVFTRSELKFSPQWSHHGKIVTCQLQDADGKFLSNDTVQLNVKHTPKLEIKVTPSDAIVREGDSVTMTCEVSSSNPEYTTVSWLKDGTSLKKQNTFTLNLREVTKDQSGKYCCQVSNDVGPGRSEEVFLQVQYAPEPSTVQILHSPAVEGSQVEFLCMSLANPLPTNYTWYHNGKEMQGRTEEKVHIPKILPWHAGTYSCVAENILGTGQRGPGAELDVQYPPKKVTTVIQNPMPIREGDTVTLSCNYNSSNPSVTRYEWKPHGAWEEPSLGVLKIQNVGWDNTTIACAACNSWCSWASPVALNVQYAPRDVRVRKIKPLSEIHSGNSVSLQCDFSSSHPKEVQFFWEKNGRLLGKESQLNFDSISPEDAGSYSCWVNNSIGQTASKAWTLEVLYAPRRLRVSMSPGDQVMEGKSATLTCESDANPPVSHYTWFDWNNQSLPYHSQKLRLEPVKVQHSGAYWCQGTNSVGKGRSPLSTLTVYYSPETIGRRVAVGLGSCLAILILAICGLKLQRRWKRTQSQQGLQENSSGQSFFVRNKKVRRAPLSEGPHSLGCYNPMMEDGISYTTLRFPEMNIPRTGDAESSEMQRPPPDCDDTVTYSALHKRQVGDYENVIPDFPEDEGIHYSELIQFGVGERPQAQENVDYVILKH
How it was run: (§1)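 Biotinylated CD22 desialylated with SialoExo (4 h, 37° C) before capture on streptavidin chip. Running buffer 10 mM HEPES, 150 mM NaCl, 0.05% Tween-20, pH 7.5, 1% DMSO, with DMSO solvent correction; 120 s dissociation. Compound affinities from steady-state analysis.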

[2] = biological target: cynomolgus Siglec-2/CD22 (Macaca fascicularis, UniProt A0A2K5WCZ6); assay: biochemical; format: binding; conditions: SPR, steady-state analysis; read-out: Affinity cyno CD22
Chain of cynomolgus Siglec-2/CD22 (A0A2K5WCZ6 entry or part of it): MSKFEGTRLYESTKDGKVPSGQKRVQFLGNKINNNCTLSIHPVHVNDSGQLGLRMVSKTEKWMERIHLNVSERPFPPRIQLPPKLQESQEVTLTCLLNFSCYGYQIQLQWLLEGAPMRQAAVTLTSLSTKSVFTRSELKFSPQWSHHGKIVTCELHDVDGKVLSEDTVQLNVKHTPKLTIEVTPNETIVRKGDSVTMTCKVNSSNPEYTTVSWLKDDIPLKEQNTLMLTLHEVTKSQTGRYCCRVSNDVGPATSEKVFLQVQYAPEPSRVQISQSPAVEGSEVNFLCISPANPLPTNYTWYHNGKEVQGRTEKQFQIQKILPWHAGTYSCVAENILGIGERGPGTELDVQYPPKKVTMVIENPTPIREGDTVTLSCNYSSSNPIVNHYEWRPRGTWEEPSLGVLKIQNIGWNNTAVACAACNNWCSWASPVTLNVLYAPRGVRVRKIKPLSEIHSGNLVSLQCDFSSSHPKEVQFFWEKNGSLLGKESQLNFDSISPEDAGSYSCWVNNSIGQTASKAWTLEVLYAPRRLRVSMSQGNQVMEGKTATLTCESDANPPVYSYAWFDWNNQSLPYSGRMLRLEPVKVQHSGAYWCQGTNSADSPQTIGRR
How it was run: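 Compound binding measured by steady-state SPR analysis, 120 s dissociation, in HEPES-NaCl-Tween buffer pH 7.5 containing 1% DMSO, DMSO solvent-corrected. Surface: cyno CD22, sialic acids first stripped by SialoExo for 4 h at 37° C., then amine-coupled onto CM5.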

[3] = biological target: T2, mouse Siglec-2-Fc-Avi (CD22) (Mus musculus, UniProt P35329); assay: SPR binding affinity to mouse CD22; conditions: steady-state analysis
T2 construct: made in house
T2 sequence (P35329 22-708 limits assumed): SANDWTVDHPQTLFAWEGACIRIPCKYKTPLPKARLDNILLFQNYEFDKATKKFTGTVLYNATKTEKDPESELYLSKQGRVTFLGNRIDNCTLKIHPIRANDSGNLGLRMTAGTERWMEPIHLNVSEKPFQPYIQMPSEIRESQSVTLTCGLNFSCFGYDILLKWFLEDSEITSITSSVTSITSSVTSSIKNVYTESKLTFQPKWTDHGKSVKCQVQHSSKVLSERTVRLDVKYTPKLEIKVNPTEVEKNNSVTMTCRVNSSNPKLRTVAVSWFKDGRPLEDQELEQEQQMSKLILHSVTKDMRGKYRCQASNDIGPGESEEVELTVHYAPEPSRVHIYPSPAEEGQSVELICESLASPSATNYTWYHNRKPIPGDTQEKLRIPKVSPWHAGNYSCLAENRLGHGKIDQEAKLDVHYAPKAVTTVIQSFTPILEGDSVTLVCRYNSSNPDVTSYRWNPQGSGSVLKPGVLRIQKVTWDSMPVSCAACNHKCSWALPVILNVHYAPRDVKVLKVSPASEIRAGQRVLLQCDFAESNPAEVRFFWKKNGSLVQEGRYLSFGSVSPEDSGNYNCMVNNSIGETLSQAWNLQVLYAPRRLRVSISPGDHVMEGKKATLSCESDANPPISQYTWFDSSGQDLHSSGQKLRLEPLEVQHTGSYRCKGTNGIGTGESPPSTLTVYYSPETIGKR
How it was run: as §1

Kd [1] [nM] | Kd [2] [nM] | Kd [3] [µM] | SMILES
< 1000 | < 1000 | < 1 | C#CCCOc1ccc(CS[C@]2(C(=O)O)C[C@H](O)[C@@H](NC(=O)CO)[C@H]([C@H](O)[C@H](O)CNC(=O)Cc3ccc(Cl)c(O)c3)O2)cc1 [Compound 131, (2S,4S,5R,6R)-2-((4-(but-3-yn-1-yloxy)benzyl)thio)-6-((1R,2R)-3-(2-(4-chloro-3-hydroxyphenyl)acetamido)-1,2-dihydroxypropyl)-4-hydroxy-5-(2-hydroxyacetamido)tetrahydro-2H-pyran-2-carboxylic acid]
1000 to 10000 | < 1000 | > 10 | C#CCOCCCCCCO[C@]1(C(=O)O)C[C@H](O)[C@@H](NC(=O)Cc2nn[nH]n2)[C@H]([C@H](O)[C@H](O)CNC(=O)Cc2ccc(Cl)cc2)O1 [Compound 208, (2R,4S,5R,6R)-5-(2-(2H-tetrazol-5-yl)acetamido)-6-((1R,2R)-3-(2-(4-chlorophenyl)acetamido)-1,2-dihydroxypropyl)-4-hydroxy-2-((6-(prop-2-yn-1-yloxy)hexyl)oxy)tetrahydro-2H-pyran-2-carboxylic acid]
< 1000 | < 1000 | < 1 | CCCNC(=O)CCOCCOCCOCCn1cc(CCOc2ccc(CO[C@]3(C(=O)O)C[C@H](O)[C@@H](NC(N)=O)[C@H]([C@H](O)[C@H](O)CNC(=O)Cc4ccc(Cl)cc4)O3)cc2)nn1 [Compound 222, (2R,4S,5R,6R)-6-((1R,2R)-3-(2-(4-chlorophenyl)acetamido)-1,2-dihydroxypropyl)-4-hydroxy-2-((4-(2-(1-(12-oxo-3,6,9-trioxa-13-azahexadecyl)-1H-1,2,3-triazol-4-yl)ethoxy)benzyl)oxy)-5-ureidotetrahydro-2H-pyran-2-carboxylic acid]
< 1000 | < 1000 | 1 to 10 | C#CCOCCOCCO[C@]1(C(=O)O)C[C@H](O)[C@@H](NC(=O)CO)[C@H]([C@H](O)[C@H](O)CNC(=O)Cc2cc(O)cc(Cl)c2)O1 [Compound 129, (2R,4S,5R,6R)-6-((1R,2R)-3-(2-(3-chloro-5-hydroxyphenyl)acetamido)-1,2-dihydroxypropyl)-4-hydroxy-5-(2-hydroxyacetamido)-2-(2-(2-(prop-2-yn-1-yloxy)ethoxy)ethoxy)tetrahydro-2H-pyran-2-carboxylic acid]

Second part, the compound before the results:

SMILES | Kd [1] [nM] | Kd [2] [nM] | Kd [3] [µM]
C#CCOCCOCCO[C@]1(C(=O)O)C[C@H](O)[C@@H](NC(=O)CO)[C@H]([C@H](O)[C@H](O)CNC(=O)Cc2cccc(-c3ccccc3)c2)O1 [Compound 33, (2R,4S,5R,6R)-6-((1R,2R)-3-(2-([1,1′-biphenyl]-3-yl)acetamido)-1,2-dihydroxypropyl)-4-hydroxy-5-(2-hydroxyacetamido)-2-(2-(2-(prop-2-yn-1-yloxy)ethoxy)ethoxy)tetrahydro-2H-pyran-2-carboxylic acid] | < 1000 | 1000 to 10000 | > 10
C#CCOCCOCCO[C@]1(C(=O)O)C[C@H](O)[C@@H](NC(=O)CO)[C@H]([C@H](O)[C@H](O)CNC(=O)Cc2ccc(-c3cccc(C(=O)NC)c3)cc2)O1 [Compound 80, (2R,4S,5R,6R)-6-((1R,2R)-1,2-dihydroxy-3-(2-(3′-(methylcarbamoyl)-[1,1′-biphenyl]-4-yl)acetamido)propyl)-4-hydroxy-5-(2-hydroxyacetamido)-2-(2-(2-(prop-2-yn-1-yloxy)ethoxy)ethoxy)tetrahydro-2H-pyran-2-carboxylic acid] | 1000 to 10000 | 1000 to 10000 | 1 to 10
C#CCOCCOCCO[C@]1(C(=O)O)C[C@H](O)[C@@H](NC(=O)CO)[C@H]([C@H](O)[C@H](O)CNC(=O)c2ccccc2Cl)O1 [Compound 27, (2R,4S,5R,6R)-6-((1R,2R)-3-(2-chlorobenzamido)-1,2-dihydroxypropyl)-4-hydroxy-5-(2-hydroxyacetamido)-2-(2-(2-(prop-2-yn-1-yloxy)ethoxy)ethoxy)tetrahydro-2H-pyran-2-carboxylic acid] | > 10000 | > 10000 | > 10
C#CCOCCOCCO[C@]1(C(=O)O)C[C@H](O)[C@@H](NC(=O)CS)[C@H]([C@H](O)[C@H](O)CNC(=O)Cc2ccc(-c3ccc(O)cc3)cc2)O1 [Compound 69, (2R,4S,5R,6R)-6-((1R,2R)-1,2-dihydroxy-3-(2-(4′-hydroxy-[1,1′-biphenyl]-4-yl)acetamido)propyl)-4-hydroxy-5-(2-mercaptoacetamido)-2-(2-(2-(prop-2-yn-1-yloxy)ethoxy)ethoxy)tetrahydro-2H-pyran-2-carboxylic acid] | 1000 to 10000 | > 10000 | > 10
C#Cc1ccc(CO[C@]2(C(=O)O)C[C@H](O)[C@@H](NC(=O)CO)[C@H]([C@H](O)[C@H](O)CNC(=O)Cc3ccc(Cl)cc3)O2)cc1 [Compound 114, (2R,4S,5R,6R)-6-((1R,2R)-3-(2-(4-chlorophenyl)acetamido)-1,2-dihydroxypropyl)-2-((4-ethynylbenzyl)oxy)-4-hydroxy-5-(2-hydroxyacetamido)tetrahydro-2H-pyran-2-carboxylic acid] | < 1000 | < 1000 | < 1
C#CCOCCOCCO[C@]1(C(=O)O)C[C@H](O)[C@@H](NC(=O)CO)[C@H]([C@H](O)[C@H](O)CNC(=O)Cc2ccc(-c3ccccc3)cc2O)O1 [Compound 67, (2R,4S,5R,6R)-6-((1R,2R)-1,2-dihydroxy-3-(2-(3-hydroxy-[1,1′-biphenyl]-4-yl)acetamido)propyl)-4-hydroxy-5-(2-hydroxyacetamido)-2-(2-(2-(prop-2-yn-1-yloxy)ethoxy)ethoxy)tetrahydro-2H-pyran-2-carboxylic acid] | 1000 to 10000 | 1000 to 10000 | 1 to 10
C#CCOC[C@H](O)[C@@H](O)CO[C@]1(C(=O)O)C[C@H](O)[C@@H](NC(=O)CO)[C@H]([C@H](O)[C@H](O)CNC(=O)Cc2ccc(Cl)cc2)O1 [Compound 24, (2R,4S,5R,6R)-6-((1R,2R)-3-(2-(4-chlorophenyl)acetamido)-1,2-dihydroxypropyl)-2-((2S,3S)-2,3-dihydroxy-4-(prop-2-yn-1-yloxy)butoxy)-4-hydroxy-5-(2-hydroxyacetamido)tetrahydro-2H-pyran-2-carboxylic acid] | 1000 to 10000 | 1000 to 10000 | > 10
C#CCCOc1ccc(CO[C@]2(C(=O)O)C[C@H](O)[C@@H](NC(=O)NC)[C@H]([C@H](O)[C@H](O)CNC(=O)Cc3ccc(-c4ccc(O)cc4)cc3)O2)cc1 [Compound 61, (2R,4S,5R,6R)-2-((4-(but-3-yn-1-yloxy)benzyl)oxy)-6-((1R,2R)-1,2-dihydroxy-3-(2-(4′-hydroxy-[1,1′-biphenyl]-4-yl)acetamido)propyl)-4-hydroxy-5-(3-methylureido)tetrahydro-2H-pyran-2-carboxylic acid] | < 1000 | < 1000 | < 1
C#CCOCCCCCCO[C@]1(C(=O)O)C[C@H](O)[C@@H](NC(=O)CC2CC2)[C@H]([C@H](O)[C@H](O)CNC(=O)Cc2ccc(Cl)cc2)O1 [Compound 88, (2R,4S,5R,6R)-6-((1R,2R)-3-(2-(4-chlorophenyl)acetamido)-1,2-dihydroxypropyl)-5-(2-cyclopropylacetamido)-4-hydroxy-2-((6-(prop-2-yn-1-yloxy)hexyl)oxy)tetrahydro-2H-pyran-2-carboxylic acid] | 1000 to 10000 | 1000 to 10000 | > 10
